Assay results taken from article PMC9127750, “Structure-based design of CDC42 effector interaction inhibitors for the treatment of cancer” (Cell reports, 2022).
Where “and” joins values, the source holds several entries; their conditions need not be identical. Equal values may be shown once.

Tested on: WM3248 melanoma cells, 486 antibodies
Assay: Reverse phase protein arrays (RPPA);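 for CREB pS133.R.C RPPA level: ratio of treated to vehicle (0 µM) normalized linear protein signal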;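 for Cyclin.B1.R.V RPPA level: ratio of treated to vehicle (0 µM) normalized linear protein signal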;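 for Cyclin.E1.R.V RPPA level: ratio of treated to vehicle (0 µM) normalized linear protein signal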;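 for DDB.1.R.V RPPA level: ratio of treated to vehicle (0 µM) normalized linear protein signal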
Type: cell-based, Human
Conditions: 10 uM
Excerpt: Pellets were snap frozen in liquid nitrogen and shipped to MD Anderson Cancer Center core RPPA facility for RPPA analysis (Table S5). Three biological replicates for each sample were generated.
Nomenclatures on the RPPA heatmaps: name_of_antibody.species_of_antibody.status_of_antibody. V - antibody validated; C - validation of antibody in progress; Q - antibody nonspecific; E – under evaluation; antibodies raised in M - mouse, G - goat, R - rabbit, or T - rat.

In the case of CN(C)c1cccc(Nc2cc(-c3ccccc3)nc(C3CCNCC3)n2)c1 [ARN22089, N1,N1-dimethyl-N3-(6-phenyl-2-(piperidin-4-yl)pyrimidin-4-yl)benzene-1,3-diamine], the “CENP.A.R.V RPPA level” value (replicates) is reported as 1.151 and 1.005 and 0.894, the “CHD1L.R.V RPPA level” value (replicates) is reported as 1.053 and 0.975 and the “CIITA.R.C RPPA level” value (replicates) is reported as 0.943. For the same molecule, the “COG3.R.V RPPA level” value (replicates) was 1.004 and 1.123 and 1.059, the “CRABP1.R.C RPPA level” value (replicates) was 1.020 and 1.132 and 0.998 and the “CRABP2.R.V RPPA level” value (replicates) was 1.116 and 1.191 and 0.898. For the same molecule, the “CREB_pS133.R.C RPPA level” value (replicates) was 1.215 and 1.129 and 1.046, the “CSK.R.C RPPA level” value (replicates) was 1.016 and 1.050 and the “Calnexin.R.V RPPA level” value (replicates) was 1.054 and 1.062 and 1.021. For the same molecule, the “Caspase.3.cleaved.R.C RPPA level” value (replicates) was 0.914 and 0.955 and 0.964, the “Caspase.7.cleaved..R.C RPPA level” value (replicates) was 0.854 and 1.203 and 0.935 and the “Caspase.8.M.Q RPPA level” value (replicates) was 0.939 and 0.985 and 0.948. The “Caspase.8.cleaved.R.C RPPA level” value (replicates) was 1.012 and 1.005, the “Caveolin.1.R.V RPPA level” value (replicates) was 0.511 and 0.968 and 1.344 and the “Cdc6.R.V RPPA level” value (replicates) was 1.149 and 0.959 and 0.806. The “Cdc42.R.C RPPA level” value (replicates) was 0.879 and 1.031 and 1.047, the “Chk1.M.C RPPA level” value (replicates) was 0.982 and the “Chk1_pS296.R.V RPPA level” value (replicates) was 1.083 and 1.109 and 1.035. For the same molecule, the “Chk1_pS345.R.C RPPA level” value (replicates) was 1.079 and 0.892, the “Chk2.M.V RPPA level” value (replicates) was 1.081 and 1.018 and 0.980 and the “Chk2_pT68.R.C RPPA level” value (replicates) was 1.106 and 0.986. The “Claudin.7.R.V RPPA level” value (replicates) was 1.024 and 1.518, the “Collagen.VI.R.V RPPA level” value (replicates) was 1.360 and 0.732 and 0.984 and the “Complex.II.Subunit.M.V RPPA level” value (replicates) was 0.942 and 1.064. For the same molecule, the “Connexin.43.R.C RPPA level” value (replicates) was 1.028 and 1.053 and 1.013, the “Coup.TFII.R.C RPPA level” value (replicates) was 0.805 and 0.957 and 0.905 and the “Cox2.R.C RPPA level” value (replicates) was 0.926. The “Cox.IV.R.V RPPA level” value (replicates) was 0.954 and 1.028 and 0.879, the “Creb.R.C RPPA level” value (replicates) was 0.985 and 0.987 and 0.986 and the “CtIP.R.V RPPA level” value (replicates) was 0.811 and 0.959 and 1.049. For the same molecule, the “Cyclin.B1.R.V RPPA level” value (replicates) was 1.215 and 0.558 and 1.046, the “Cyclin.D1.R.C RPPA level” value (replicates) was 1.058 and 1.030 and the “Cyclin.D3.M.V RPPA level” value (replicates) was 1.147 and 1.027 and 0.999. The “Cyclin.E1.R.V RPPA level” value (replicates) was 1.052 and 1.061 and 0.904, the “D.a.Tubulin.R.V RPPA level” value (replicates) was 0.843 and 1.062 and 1.022 and the “DAPK1_pS308.M.C RPPA level” value (replicates) was 1.219 and 0.875. For the same molecule, the “DAPK2.R.C RPPA level” value (replicates) was 0.896 and 0.971, the “DDB.1.R.V RPPA level” value (replicates) was 0.816 and 0.798 and 0.956 and the “DDR1.R.V RPPA level” value (replicates) was 1.205 and 0.959 and 0.921. The “DDR1_pY513.R.C RPPA level” value (replicates) was 1.134 and 1.079 and 0.941, the “DJ1.R.V RPPA level” value (replicates) was 0.977 and 1.030 and the “DM.Histone.H3.R.V RPPA level” value (replicates) was 0.923 and 0.956 and 0.905. For the same molecule, the “DM.K9.Histone.H3.M.V RPPA level” value (replicates) was 1.060 and 1.027, the “DNA.Ligase.IV.R.C RPPA level” value (replicates) was 0.876 and 1.063 and the “DNA_POLG.R.V RPPA level” value (replicates) was 1.161 and 1.030 and 0.850. For the same molecule, the “c.Jun_pS73.R.V RPPA level” value (replicates) was 0.892 and 1.231 and 0.915, the “c.Kit.R.V RPPA level” value (replicates) was 1.223 and 0.923 and 0.946 and the “c.Met_pY1234_Y1235.R.V RPPA level” value (replicates) was 0.927 and 0.979. The “c.Myc.R.C RPPA level” value (replicates) was 0.990 and 1.949 and 1.062, the “cGAS.R.V RPPA level” value (replicates) was 1.123 and 1.204 and 1.015 and the “cdc2_pY15.R.C RPPA level” value (replicates) was 1.056 and 0.933. The “cdc25C.R.V RPPA level” value (replicates) was 0.773 and 0.805 and 1.120, the “RPPA MYH11.R.C” value (single replicates) was 1.100 and 1.584 and the “RPPA Myosin.IIa.R.C” value (single replicates) was 0.877 and 0.781 and 1.164. The “RPPA Myosin.IIa_pS1943.R.V” value (single replicates) was 0.954 and 0.844 and 1.268, the “RPPA Myt1.R.C” value (single replicates) was 0.886 and 0.984 and 1.096 and the “RPPA N.Cadherin.R.V” value (single replicates) was 1.097 and 1.063 and 1.030. The “RPPA N.Ras.M.V” value (single replicates) was 0.953 and 0.958 and 1.062, the “RPPA NAPSIN.A.R.C” value (single replicates) was 0.999 and 1.048 and the “RPPA NDRG1_pT346.R.V” value (single replicates) was 0.798 and 1.051 and 1.195. The “RPPA NDUFB4.R.V” value (single replicates) was 1.112 and 1.008 and 0.987, the “RPPA NRF2.R.C” value (single replicates) was 1.131 and 0.925 and 0.932 and the “RPPA Notch1.R.V” value (single replicates) was 1.065 and 1.124 and 1.005. The “RPPA Notch1.cleaved.R.V” value (single replicates) was 0.792 and 0.886 and 1.098, the “RPPA Notch3.R.C” value (single replicates) was 1.065 and 1.230 and 1.000 and the “RPPA Oct.4.R.C” value (single replicates) was 0.909. The “RPPA P.Cadherin.R.C” value (single replicates) was 1.001 and 0.968, the “RPPA PAI.1.M.V” value (single replicates) was 0.919 and 0.946 and the “RPPA PAICS.R.C” value (single replicates) was 0.926 and 0.836 and 0.997. For the same molecule, the “RPPA PAK1.R.V” value (single replicates) was 0.749 and 1.057 and 1.078, the “RPPA PAK4.R.V” value (single replicates) was 1.101 and 1.108 and 0.979 and the “RPPA PAK_pS474_S602_S560.R.V” value (single replicates) was 1.125 and 1.130 and 1.000. For the same molecule, the “RPPA PAK_pT423_T402.R.C” value (single replicates) was 1.141 and 0.908, the “RPPA PAR.R.C” value (single replicates) was 0.306 and 0.831 and 0.304 and the “RPPA PARG.R.C” value (single replicates) was 0.976 and 1.013 and 0.921. The “RPPA PARP.R.V” value (single replicates) was 1.079 and 0.890 and 1.083, the “RPPA PAX6.R.V” value (single replicates) was 0.992 and 1.020 and 0.997 and the “RPPA PAX8.R.C” value (single replicates) was 1.133 and 1.022 and 0.978. For the same molecule, the “RPPA PCNA.M.C” value (single replicates) was 0.928 and 1.013 and 1.020, the “RPPA PD.1.R.V” value (single replicates) was 1.076 and 1.064 and 1.035 and the “RPPA PD.L1.R.C” value (single replicates) was 0.845 and 1.047. The “RPPA PDH.M.V” value (single replicates) was 1.032 and 1.047 and 1.014.
